Where a name gives a salt, the structure may show the parent alone.
Each compound was assayed against human σ1 receptor (Homo sapiens, UniProt Q99720) (assay: biochemical). Settings: not given.
Format: binding
Parameters: μ and σ1 dual binding: key to the marks not given beside the values

Sequence of human σ1 receptor (Q99720 whole entry): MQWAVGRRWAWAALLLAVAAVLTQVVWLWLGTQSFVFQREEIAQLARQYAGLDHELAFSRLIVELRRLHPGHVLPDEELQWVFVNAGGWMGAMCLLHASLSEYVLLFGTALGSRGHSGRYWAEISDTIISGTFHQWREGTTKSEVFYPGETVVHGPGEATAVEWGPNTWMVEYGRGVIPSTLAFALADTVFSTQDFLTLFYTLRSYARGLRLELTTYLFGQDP

Which Ki does the source give for `CC1OC2(CCN(CCc3ncccc3F)CC2)CN(c2ccccc2)C1=O` (centres unmarked) [Example 96, 9-(2-(3-fluoropyridin-2-yl)ethyl)-2-methyl-4-phenyl-1-oxa-4,9-diazaspiro[5.5]undecan-3-one hydrochloride] here?
The Ki was < 500 nM.

With `CC1OC2(CCN(CCc3cccc(C#N)n3)CC2)CN(c2ccccc2)C1=O.Cl` (centres unmarked) [Example 123, 6-(2-(2-methyl-3-oxo-4-phenyl-1-oxa-4,9-diazaspiro[5.5]undecan-9-yl)ethyl)picolinonitrile hydrochloride] as the compound, how does the “μ and σ1 dual binding” value read?
The value was “++”.

With `CC1OC2(CCN(CCc3ccccc3)CC2)CN(c2cccc(O)c2)C1=O` (centres unmarked) [Example 294, 4-(3-hydroxyphenyl)-2-methyl-9-phenethyl-1-oxa-4,9-diazaspiro[5.5]undecan-3-one] as the compound, how does the “μ and σ1 dual binding” value read?
Its value is “++”.

Which Ki does the source give for `O=C1C(CCCO)OC2(CCN(CCc3ccccc3)CC2)CN1c1ccccc1F` (centres unmarked) [Example 302, 4-(2-fluorophenyl)-2-(3-hydroxypropyl)-9-phenethyl-1-oxa-4,9-diazaspiro[5.5]undecan-3-one] here?
The Ki was < 500 nM.

`Cl.O=C1COC2(CCN(CCc3ccccc3)CC2)CN1CCc1ccncc1` [Example 178, 9-phenethyl-4-(2-(pyridin-4-yl)ethyl)-1-oxa-4,9-diazaspiro[5.5]undecan-3-one hydrochloride] was tested. Which “μ and σ1 dual binding” value did it give?
The value was “++”.

With `CC1OC2(CCN(CCc3ccccc3)CC2)CN(CCc2cccnc2)C1=O` (centres unmarked) [Example 175, 2-methyl-9-phenethyl-4-(2-(pyridin-3-yl)ethyl)-1-oxa-4,9-diazaspiro[5.5]undecan-3-one dihydrochloride] as the compound, how does the Ki read?
The Ki was < 500 nM.

`CC1OC2(CCN(CCc3nccs3)CC2)CN(c2ccccc2)C1=O` (centres unmarked) [Example 95, 2-methyl-4-phenyl-9-(2-(thiazol-2-yl)ethyl)-1-oxa-4,9-diazaspiro[5.5]undecan-3-one hydrochloride] was tested. Which Ki did it give?
Its Ki is < 500 nM.

`C[C@@H]1OC2(CCN(C[C@@H](O)c3ccccc3)CC2)CN(c2ccccc2)C1=O` [Example 151c, (S)-9-((S)-2-hydroxy-2-phenylethyl)-2-methyl-4-phenyl-1-oxa-4,9-diazaspiro[5.5]undecan-3-one] was tested. Which Ki did it give?
The Ki was < 500 nM.

With `CC1OC2(CCN(CCc3ccccc3)CC2)CN(c2ccc3ncsc3c2)C1=O` (centres unmarked) [Example 203, 4-(benzo[d]thiazol-6-yl)-2-methyl-9-phenethyl-1-oxa-4,9-diazaspiro[5.5]undecan-3-one] as the compound, how does the “μ and σ1 dual binding” value read?
The value was “++”.

`CC1OC2(CCN(CCc3ccccc3)CC2)CN(c2cccc(C#N)c2)C1=O.Cl` (centres unmarked) [Example 198, 3-(2-methyl-3-oxo-9-phenethyl-1-oxa-4,9-diazaspiro[5.5]undecan-4-yl)benzonitrile hydrochloride] was tested. Which “μ and σ1 dual binding” value did it give?
The value was “++”.

`O=C1C(CC2CCOCC2)OC2(CCN(CCc3ccccc3)CC2)CN1c1ccccc1F` (centres unmarked) [Example 311, 4-(2-fluorophenyl)-9-phenethyl-2-((tetrahydro-2H-pyran-4-yl)methyl)-1-oxa-4,9-diazaspiro[5.5]undecan-3-one hydrochloride] was tested. Which Ki did it give?
The Ki was < 500 nM.

How did the “μ and σ1 dual binding” value turn out when `CCOC(=O)c1cccc(N2CC3(CCN(CCc4ccccc4)CC3)OC(C)C2=O)c1.Cl` (centres unmarked) [Example 197, ethyl 3-(2-methyl-3-oxo-9-phenethyl-1-oxa-4,9-diazaspiro[5.5]undecan-4-yl)benzoate hydrochloride] was run?
The value was “++”.

For `COc1cccc(N2CC3(CCN(CCc4ccccc4)CC3)OC(C)C2=O)n1` (centres unmarked) [Example 211, 4-(6-methoxypyridin-2-yl)-2-methyl-9-phenethyl-1-oxa-4,9-diazaspiro[5.5]undecan-3-one hydrochloride], which Ki is on record?
The Ki was < 500 nM.

Which “μ and σ1 dual binding” value does the source give for `CC1OC2(CCN(CCc3ccc(C#N)cc3)CC2)CN(c2ccccc2)C1=O.Cl` (centres unmarked) [Example 76, 4-(2-(2-methyl-3-oxo-4-phenyl-1-oxa-4,9-diazaspiro[5.5]undecan-9-yl)ethyl)benzonitrile hydrochloride] here?
Its value is “++”.

For `CC1OC2(CCN(CCc3ccccc3N)CC2)CN(c2ccccc2)C1=O` (centres unmarked) [Example 229, 9-(2-aminophenethyl)-2-methyl-4-phenyl-1-oxa-4,9-diazaspiro[5.5]undecan-3-one], which Ki is on record?
Its Ki is < 100 nM.

Same assay, conditions: combined class from Ki-σ1 (human σ1 receptor, A1) and Ki-μ (human μ-opioid receptor, A2) radioligand binding

For `CC(C)C1OC2(CCN(CCc3ccccc3OCCO)CC2)CN(c2ccccc2F)C1=O` (centres unmarked) [Example 281, 4-(2-fluorophenyl)-9-(2-(2-hydroxyethoxy)phenethyl)-2-isopropyl-1-oxa-4,9-diazaspiro[5.5]undecan-3-one], which “μ and σ1 dual binding” value is on record?
Its value is “++”.

How did the “μ and σ1 dual binding” value turn out when `COc1ccnc(CCN2CCC3(CC2)CN(c2ccccc2)C(=O)C(C)O3)c1` (centres unmarked) [Example 35, 9-(2-(4-methoxypyridin-2-yl)ethyl)-2-methyl-4-phenyl-1-oxa-4,9-diazaspiro[5.5]undecan-3-one] was run?
Its value is “++”.

How did the “μ and σ1 dual binding” value turn out when `COC(=O)CCN1CCC2(CC1)CN(Cc1ccccc1)C(=O)C1(CC1)O2` [Example 346, methyl 3-(12-benzyl-13-oxo-4-oxa-8,12-diazadispiro[2.1.5.3]tridecan-8-yl)propanoate] was run?
The value was “++”.

Same assay, conditions: read-out: μ and σ1 dual binding

Which Ki does the source give for `CC1OC2(CCN(CCc3ccccc3)CC2)CN(c2cccc(C(=O)O)c2)C1=O` (centres unmarked) [Example 268, 3-(2-methyl-3-oxo-9-phenethyl-1-oxa-4,9-diazaspiro[5.5]undecan-4-yl)benzoic acid] here?
Its Ki is > 500 nM.

`CC1OC2(CCN(CCc3cc(N)ccn3)CC2)CN(c2ccccc2)C1=O` (centres unmarked) [Example 30, 9-(2-(4-aminopyridin-2-yl)ethyl)-2-methyl-4-phenyl-1-oxa-4,9-diazaspiro[5.5]undecan-3-one hydrochloride] was tested. Which Ki did it give?
Its Ki is > 500 nM.

Which Ki does the source give for `COc1cccc(CCN2CCC3(CC2)CN(c2ccccc2)C(=O)CO3)c1` [Example 132, 9-(3-methoxyphenethyl)-4-phenyl-1-oxa-4,9-diazaspiro[5.5]undecan-3-one] here?
The Ki was < 500 nM.

Which Ki does the source give for `CC(=O)Nc1cccc(CCN2CCC3(CC2)CN(c2ccccc2)C(=O)[C@@H](C)O3)c1` [Example 244b, (R)-N-(3-(2-(2-methyl-3-oxo-4-phenyl-1-oxa-4,9-diazaspiro[5.5]undecan-9-yl)ethyl)phenyl)acetamide hydrochloride] here?
The Ki was < 100 nM.

With `CC1OC2(CCN(CCc3cccnc3[N+](=O)[O-])CC2)CN(c2ccccc2)C1=O` (centres unmarked) [Example 27, 2-methyl-9-(2-(2-nitropyridin-3-yl)ethyl)-4-phenyl-1-oxa-4,9-diazaspiro[5.5]undecan-3-one] as the compound, how does the Ki read?
Its Ki is > 500 nM.

For `O=C1COC2(CCN(CCc3ccccc3)CC2)CN1c1cccc(F)c1` [Example 191, 4-(3-fluorophenyl)-9-phenethyl-1-oxa-4,9-diazaspiro[5.5]undecan-3-one], which Ki is on record?
Its Ki is < 500 nM.

How did the Ki turn out when `CC(=O)Nc1cccc(CCN2CCC3(CC2)CN(c2ccccc2)C(=O)C(C)O3)c1` (centres unmarked) [Example 243, N-(3-(2-(2-methyl-3-oxo-4-phenyl-1-oxa-4,9-diazaspiro[5.5]undecan-9-yl)ethyl)phenyl)acetamide] was run?
The Ki was < 500 nM.

How did the Ki turn out when `CC1OC2(CCN(CCc3ccccc3F)CC2)CN(c2cccnc2C(F)(F)F)C1=O` (centres unmarked) [Example 130, 9-(2-fluorophenethyl)-2-methyl-4-(2-(trifluoromethyl)pyridin-3-yl)-1-oxa-4,9-diazaspiro[5.5]undecan-3-one dihydrochloride] was run?
Its Ki is < 500 nM.

Which Ki does the source give for `CC1OC2(CCN(CCc3ccc(C(F)(F)F)nc3)CC2)CN(c2ccccc2F)C1=O` (centres unmarked) [Example 91, 4-(2-fluorophenyl)-2-methyl-9-(2-(6-(trifluoromethyl)pyridin-3-yl)ethyl)-1-oxa-4,9-diazaspiro[5.5]undecan-3-one dihydrochloride] here?
The Ki was < 500 nM.

With `CC1OC2(CCN(CCc3ccccc3)CC2)CN(c2cccc([N+](=O)[O-])c2)C1=O` (centres unmarked) [Example 199, 2-methyl-4-(3-nitrophenyl)-9-phenethyl-1-oxa-4,9-diazaspiro[5.5]undecan-3-one] as the compound, how does the Ki read?
The Ki was > 500 nM.

For `CC1(C)OC2(CCN(CCc3ccccc3)CC2)CN(c2ccccc2)C1=O` [Example 18, 2,2-dimethyl-9-phenethyl-4-phenyl-1-oxa-4,9-diazaspiro[5.5]undecan-3-one], which Ki is on record?
Its Ki is < 100 nM.

With `C[C@@H]1OC2(CCN(CCc3ccccc3F)CC2)CN(c2ncccc2C(F)(F)F)C1=O` [Example 222b, (S)-9-(2-fluorophenethyl)-2-methyl-4-(3-(trifluoromethyl)pyridin-2-yl)-1-oxa-4,9-diazaspiro[5.5]undecan-3-one] as the compound, how does the Ki read?
Its Ki is > 500 nM.

With `COC(=O)CC1OC2(CCN(CCc3ccccc3)CC2)CN(c2ccccc2)C1=O` (centres unmarked) [Example 14, methyl 2-(3-oxo-9-phenethyl-4-phenyl-1-oxa-4,9-diazaspiro[5.5]undecan-2-yl)acetate hydrochloride] as the compound, how does the Ki read?
Its Ki is < 100 nM.

Which Ki does the source give for `O=C1C(CO)OC2(CCN(CCc3ccccc3)CC2)CN1c1ccccc1` (centres unmarked) [Example 283, 2-(hydroxymethyl)-9-phenethyl-4-phenyl-1-oxa-4,9-diazaspiro[5.5]undecan-3-one] here?
The Ki was < 500 nM.

For `O=C1COC2(CCN(CCc3ccccc3)CC2)CN1Cc1cscn1` [Example 167, 9-phenethyl-4-(thiazol-4-ylmethyl)-1-oxa-4,9-diazaspiro[5.5]undecan-3-one hydrochloride], which Ki is on record?
Its Ki is < 100 nM.

`CC1OC2(CCN(CCc3ccc([N+](=O)[O-])cn3)CC2)CN(c2ccccc2)C1=O` (centres unmarked) [Example 23, 2-methyl-9-(2-(5-nitropyridin-2-yl)ethyl)-4-phenyl-1-oxa-4,9-diazaspiro[5.5]undecan-3-one] was tested. Which Ki did it give?
The Ki was > 500 nM.

How did the Ki turn out when `CC1OC2(CCN(CCc3ccccc3)CC2)CN(c2cncc(C(F)(F)F)c2)C1=O` (centres unmarked) [Example 217, 2-methyl-9-phenethyl-4-(5-(trifluoromethyl)pyridin-3-yl)-1-oxa-4,9-diazaspiro[5.5]undecan-3-one hydrochloride] was run?
The Ki was < 500 nM.

With `CC1OC2(CCN(CC(=O)N3CCCCC3)CC2)CN(Cc2ccc(C(F)(F)F)cn2)C1=O` (centres unmarked) [Example 128, 2-methyl-9-(2-oxo-2-(piperidin-1-yl)ethyl)-4-((5-(trifluoromethyl)pyridin-2-yl)methyl)-1-oxa-4,9-diazaspiro[5.5]undecan-3-one hydrochloride] as the compound, how does the Ki read?
The Ki was > 500 nM.

With `c1ccc(CCN2CCC3(CC2)CN(Cc2ccccn2)CCO3)cc1` [Example 336, 9-phenethyl-4-(pyridin-2-ylmethyl)-1-oxa-4,9-diazaspiro[5.5]undecane dihydrochloride] as the compound, how does the Ki read?
Its Ki is < 100 nM.

How did the Ki turn out when `O=C1N(Cc2ccc(C(F)(F)F)cn2)CC2(CCN(CCc3ccccc3)CC2)OC12CC2` [Example 187, 8-phenethyl-12-{[5-(trifluoromethyl)pyridin-2-yl]methyl}-4-oxa-8,12-diazadispiro[2.1.5.3]tridecan-13-one dihydrochloride] was run?
The Ki was < 100 nM.
